# Reference: US20220323443A1, “COMBINATION THERAPY FOR CANCER TREATMENT” (TAKEDA PHARMACEUTICAL COMPANY LIMITED, priority 2019, published 2022)
# “Also recorded” adds a separate entry of the source.
# Experiments:
# [1] = test system: homologous recombination (HR) repair in 293T cells; assay: Homologous recombination (HR) repair assay, DR-GFP / I-SceI reporter, flow cytometry; type: cell-based, human; conditions: 300 nM Compound 1, 72 hours after transfection
# Procedure: The efficiency of homologous recombination (HR) was assessed using an I-SceI expression plasmid (I-SceI) and an I-SceI repair reporter plasmid (DR-GFP) composed of two differentially mutated GFP genes, one of which contained a unique I-SceI restriction site (FIG. 1A). The assay works through gene conversion repair of a double strand break caused by I-SceI digestion. DR-GFP plasmids repaired by homologous recombination express GFP. Human embryonic kidney 293T cells were transfected with either 5 μg of DR-GFP plus 10 μg of I-SceI in presence (300 nM) or absence of Compound 1. Seventy-two hours after transfection, the cells were fixed with 4% paraformaldehyde for 20 min at room temperature, and the number of GFP-expressing cells was assessed by flow cytometry (FIGS. 1B and 1C).
# [2] = test system: repair of IR-induced DSBs in HeLa cells; assay: 53BP1 foci assay of irradiation-induced DNA double-strand breaks; type: cell-based, human
# Procedure: Human cervical adenocarcinoma HeLa cells were treated with or without Compound 1 treatment at 300 nM, followed by irradiation (IR) treatment at 4 Gy using an X-ray irradiator (MBR-1520R-3, Hitachi Power Solutions Co., Ltd., Ibaraki). Eight or forty-eight hours after IR treatment, the cells were fixed with 4% paraformaldehyde for the following immunofluorescent experiments. Foci formation of 53BP1 was used as an index of IR-induced DSBs. After permeabilization, the cells were incubated with anti-53BP1 antibody (2 μg/ml) for 60 min at 37° C., and then incubated with Alexa-594-conjugated secondary antibody for 30 min at 37° C. Images were captured with an Axiovert 200M microscope (Carl Zeiss).
# [3] = test system: COLO205 human colorectal adenocarcinoma xenografts; assay: In vivo antitumor activity of Compound 1 and irradiation in nude mice; set-up: species or system mouse; conditions: Compound 1 40 mg/kg orally once daily Day 1-14 combined with irradiation 3 Gy on Day 1, 2, 3, 8, 9, 10
# Procedure: Human colorectal carcinoma cell line, COLO205 xenograft model was established by subcutaneous injection of cell suspension (5×10^6 cells/100 μl/site, in 1:1 mixture of Hanks' balanced salt and BD Matrigel™ Matrix (BD biosciences)). Mice with tumor size of approximately 200 mm^3 were randomly assigned to dose groups on the day before start date of dosing (Day 0). Compound 1 was suspended in 0.5 w/v % methylcellulose and administered orally to mice at a dose of 40 mg/kg once daily on Day 1-14. Mice in irradiation groups were irradiated at a dose of 3 Gy daily on Day 1, 2, 3, 8, 9 and 10 under pentobarbital anesthesia. Tumors on the flanks of the mice were irradiated using an X-ray irradiator (MBR-1520R-3, Hitachi Power Solutions Co., Ltd., Ibaraki) and non-tumor part of mice were shielded by lead plate. Tumor size was measured by caliper and tumor volume was estimated using the equation V=(LW^2)/2, where L and W are tumor length and width, respectively and reported in cubic millimeters (FIG. 3).
# [4] = test system: CT26 Mouse syngeneic colon tumor model; assay: In vivo combination study, syngeneic mouse tumor isograft model; conditions: note to Table 9
# A20 (Lymphoma) = assay: as above; conditions: note to Table 9
# [5] = test system: Twelve cancer cell lines (A549, BxPC3, Calu-1, COLO205, KYSE140, KYSE150, KYSE520, KYSE70, MIA PaCa-2, NCI-H292, PANC1, and RKO); assay: CRISPR-Cas9 knock-out screening for genes sensitizing to compound 1; type: cell-based; conditions: hit genes: ES<0 and p-value <0.05, control vs low dose compound 1, in more than three cancer cell lines
# [6] = test system: RNASEH2A knockout (KO) TK-6 cells and parental TK-6 cells; assay: In vitro growth inhibition assay, Cell Titer-Glo, 72 hours; type: cell-based; conditions: FIG. 9
# Procedure: To determine further whether RNASEH2A is involved in the sensitization to compound 1, in vitro growth inhibition assay of compound 1 was carried out in RNASEH2A knockout (KO) TK-6 cells and its counterpart parental TK-6 cells. RNASEH2A KO TK-6 cells and its counterpart parental TK-6 cells were obtained from Kyoto University under a material transfer agreement. The cell lines were cultured in RPMI-1640 medium (FUJIFILM Wako Pure Chemical Corporation, Osaka, JAPAN) supplied with 10% Fetal Bovine Serum (CORNING Inc., NY, USA), sodium pyruvate (FUJIFILM Wako Pure Chemical Corporation, Osaka, JAPAN), and Penicillin-Streptomycin (FUJIFILM Wako Pure Chemical Corporation, Osaka, JAPAN). Stock solutions of compound 1 were prepared in dimethyl sulfoxide (DMSO), and stored at approximately −20 deg C.
# Cell proliferation was measured by using Cell Titer-Glo Luminescent Cell Viability Assay (Promega, WI, USA.). The CellTiter-Glo Luminescent Cell Viability Assay is a homogeneous method of determining the number of viable cells in culture based on quantitation of the ATP present, which signals the presence of metabolically active cells. […] Luminescence of each well was measured by EnVision™ (PerkinElmer Inc., MA, USA). Taking as 100% the ATP content for the DMSO treatment control group, the ratio of the residual ATP content for each treatment group was determined. […]
smiles,measurement,setting,value
"Cc1[nH]ncc1-c1cc2nc([C@@H]3CC4CCN3CC4)[nH]c(=O)c2s1 [Compound 1, 2-[(2S)-1-azabicyclo[2.2.2]oct-2-yl]-6-(3-methyl-1H-pyrazol-4-yl)thieno[3,2-d]pyrimidin-4(3H)-one]",HR repair activity (GFP-expressing cells),[1],suppresses HR repair activity
same,repair of IR-induced DSBs,"[2]; 300 nM Compound 1 + IR 4 Gy, HeLa cells",delays repair of IR-induced DSBs; also recorded: delays repair of irradiation induced double-strand breaks (DSBs)
same,53BP1 foci-positive cells (≥10 foci/cell),"[2]; co-treated with IR 4 Gy and Compound 1 300 nM, 48 h after IR treatment, HeLa",still observed with high frequency
same,antitumor activity (tumor volume),[3],strong antitumor activity and enhanced antitumor efficacy compared to either single treatment alone
same,CR per group,[4]; by note order: Anti-mCTLA-4 study in CT26 (40 mm^3),0
same,CR per group,[4]; by note order: Anti-mCTLA-4 study in CT26 (50 mm^3),0
same,CR per group,[4]; by note order: Anti-mPD-1 study in CT26 (40 mm^3),0
same,CR per group,[4]; by note order: Anti-mPD-1 study in CT26 (50 mm^3),0
same,CR per group,[4]; by note order: Anti-mPD-1 study in CT26 (64 mm^3),no CR
same,CR per group,[4]; by note order: NKTR-214 + anti-mPD-1 study in CT26 (64 mm^3),no CR
same,CR per group,[4]; by note order: NKTR-214 study in CT26 (64 mm^3),no CR
same,CR per group,A20 (Lymphoma); by note order: Anti-mPD-1 study in A20 (61 mm^3),1
same,CR per group,A20 (Lymphoma); by note order: NKTR-214 + anti-mPD-1 study in A20 (61 mm^3),1
same,CR per group,A20 (Lymphoma); by note order: NKTR-214 study in A20 (61 mm^3),1
same,sensitivity of cancer cells with mutation or deletion of at least one sensitizing hit gene,[5],more sensitive
same,sensitivity (growth inhibition) of RNASEH2A KO TK-6 cells versus WT TK-6 cells,[6],more sensitive
